Read-outs that look alike come from different tables or passages of the source.
Tests used:
recombinant rat PAI-1 = molecular target: T1, recombinant rat PAI-1 (Rattus norvegicus, UniProt P20961); test: biochemical; conditions: read-out: Inhibition Rate of PAI-1 Activity (%)
T1 sequence (P20961 24-402): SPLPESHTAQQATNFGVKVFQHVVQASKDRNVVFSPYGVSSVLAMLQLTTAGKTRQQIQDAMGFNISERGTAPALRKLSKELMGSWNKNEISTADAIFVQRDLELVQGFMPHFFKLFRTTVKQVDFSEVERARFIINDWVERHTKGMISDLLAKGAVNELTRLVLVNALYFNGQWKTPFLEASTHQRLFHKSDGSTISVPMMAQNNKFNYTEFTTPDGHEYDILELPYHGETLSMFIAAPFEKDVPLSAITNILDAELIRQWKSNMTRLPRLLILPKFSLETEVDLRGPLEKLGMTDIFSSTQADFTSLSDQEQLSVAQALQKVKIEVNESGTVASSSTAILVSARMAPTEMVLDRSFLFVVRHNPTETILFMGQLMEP

recombinant human PAI-1 [1] = molecular target: T2, recombinant human PAI-1 (Homo sapiens, UniProt P05121); test: biochemical
Method: To this solution, 6 µl of 80 nM recombinant human PAI-1 (Molecular Innovations, Inc.) solution prepared with Tris buffer was added, and the plate was incubated for 5 minutes at room temperature. Furthermore, 30 µl of 800 IU/ml two-chain tPA (Activity Standard; American diagnostica, inc.) prepared with Tris buffer was added, and the mixed solution was incubated for 15 minutes at room temperature. Then, 30 µl of 400 µM fluorogenic substrate (Pyr-Gly-Arg-MCA; Peptide Institute, Inc.) for tPA prepared with Tris buffer was added and reacted for 30 minutes at room temperature.
50 mM Tris, 150 mM NaCl, 10 µg/ml BSA, 0.01 % Tween80 (SIGMA-ALDRICH Corporation)

recombinant human PAI-1 [2] = molecular target: T2, recombinant human PAI-1; test: Test Example 4: Human PAI-1 Inhibitory Activity (amount of PAI-1 bound to plate-coated one-chain tPA, ELISA); type: biochemical; set-up: purchased Molecular Innovations, Inc; conditions: human PAI-1 bound to tPA, read-out: Inhibition Rate of PAI-1 Activity (%); for inhibition at 0.3 µM: Compound Concentration 0.3µM; for inhibition at 1 µM: Compound Concentration 1µM; for inhibition at 3 µM: Compound Concentration 3µM
Method: 100 µl of tPA solution, where one-chain recombinant tPA (hereinafter reffered to as tPA; American diagnostica, inc.) had been diluted with Buffer A to acheive a concentration of 10 µg/ml, was added to each well of a 96-well plate (Nunc Maxisorp), and the plate was incubated for one night at 4 °C to be coated with tPA. Then, after suction of tPA solution from the 96-well plate, the plate was rinsed successively with Buffer A and Buffer B. To Buffer B, solutions of the compound according to the present invention dissolved with DMSO (final DMSO concentration: 0.2 %) and recombinant human PAI-1 (Molecular Innovations, Inc.) were added. The mixtures were blended so that the final concentrations would be 0.1 to 3.0 µM and 50 ng/ml respectively, and were incubated for 15 minutes on ice. These mixed solutions were added to the rinsed 96-well plate at 100 µl/well, and incubated for 60 minutes at room temperature. To prepare a calibration curve, PAI-1 solutions without the compound according to the present invention (solutions where the final concentrations being 100, 50, 25, 12.5, 6.25, 3.13, or 1.56 ng/ml PAI-1) were added at 100 µl/well, and the plate was incubated for 60 minutes at room temperature, as standard.
After incubation, the reaction mixture was removed by suction, and each well was rinsed with Wash Buffer. Next, anti-human PAI-1 monoclonal antibody (PROGEN Inc.) diluted with Buffer C to be 3.0 µg/ml was added to the 96-well plate at 100 µl/well, and the plate was incubated for 1 hour at room temperature. After rinsing each well with Wash Buffer, alkaline phosphatase-labeled goat anti-mouse IgG (H+L) (Jackson ImmunoResearch, Inc.) diluted with Buffer D to be 0.12 µg/ml was added at 100 µl/well, and the plate was incubated for 1 hour at room temperature. After rinsing each well with Wash Buffer, 1.0 mg/ml p-Nitrophenyl Phosphate (SIGMA) was added to the 96-well plate at 100 µl/well to start the reaction. After 30 to 60 minutes, 25 µl of 0.5 N NaOH was added to stop the reaction, and the absorbance was measured at 405 nm using a multiplate reader (GENios; TECAN G.M.B.H.).
Based on the calibration curve prepared from the standard wells, amounts of PAI-1 bound to tPA in the wells that had been treated with the compound according to the present invention were calculated, and the PAI-1 inhibition rates by the compounds according to the present invention were obtained by the following equation. [API-1InhibitionRate(%)] = [1-(amountofPAI-1boundtotPaonthewellbytreatmentwiththecompondaccordingtothepresentinvention)/(amountofPAI-1boundtotPAonthewellbytreatmentwithPAI-1solutionnotincledingthecompondaccordingtotheinvention(solution having the final concentration of 50 nb/ml PAI-1)] × 100 [formula] • <Composition of Buffer A> 0.1 M Tris-HCl, 150 mM NaCl, pH 7.7 • <Composition of Buffer B> 50 mM sodium phosphate, 0.1 M NaCl, 1 mM EDTA, pH 6.6 • <Composition of Buffer C> 50 mM sodium phosphate, 100 mM NaCl, pH 7.4 • <Composition of Buffer D> 0.01 M Tris-HCl, 0.25 M NaCl, pH 8.0 • <Compositon of Wash Buffer> 0.05 % Tween 20, 0.1 % BSA in Buffer A • <Composition of p-Nitrophenyl Phosphate solution> 1 M Diethanolamine 0.5 mM MgCl2, p-Nitrophenyl phosphate, pH 9.8

recombinant human PAI-1 [3] = molecular target: T2, recombinant human PAI-1; test: Test Example 2: Human PAI-1 Inhibitory Activity (pH 7.4 HEPES buffer, 10 minutes incubation with two-chain tPA); type: biochemical; set-up: purchased Molecular Innovations, Inc; conditions: read-out: Inhibition Rate of PAI-1 Activity (%)
Method: 0.1 M HEPES, 0.1 M NaCl. 1 mM EDTA. 0.1 % Polyethylene glycol 8,000 (Hampton Research Corporation),
2 mM Dimethyldecylphoshine oxide [Apo-10] (Fluka Corporation)

[4] = read-out: Inhibition Rate of PAI-1 Activity (%), Compound Concentration 5µM
[5] = read-out: Inhibition Rate of PAI-1 Activity (%), Compound Concentration 10µM
[6] = read-out: Inhibition Rate of PAI-1 Activity (%), Compound Concentration 25µM
[7] = read-out: Inhibition Rate of PAI-1 Activity (%)

T2 sequence (P05121 24-402): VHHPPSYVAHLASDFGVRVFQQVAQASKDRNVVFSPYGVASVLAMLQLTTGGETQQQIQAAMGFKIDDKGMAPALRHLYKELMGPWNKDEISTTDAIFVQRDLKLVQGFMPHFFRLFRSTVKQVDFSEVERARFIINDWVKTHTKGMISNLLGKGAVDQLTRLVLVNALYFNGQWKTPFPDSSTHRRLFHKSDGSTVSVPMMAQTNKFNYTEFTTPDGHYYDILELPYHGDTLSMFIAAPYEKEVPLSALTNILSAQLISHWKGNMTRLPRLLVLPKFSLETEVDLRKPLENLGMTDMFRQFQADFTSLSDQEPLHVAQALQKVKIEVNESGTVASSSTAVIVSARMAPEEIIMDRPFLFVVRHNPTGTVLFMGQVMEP

Row | SMILES | inhibition at 0.3 µM (recombinant rat PAI-1) [%] | inhibition at 1 µM (recombinant rat PAI-1) [%] | inhibition at 3 µM (recombinant rat PAI-1) [%] | inhibition at 10 µM (recombinant rat PAI-1) [%] | inhibition at 5 µM (recombinant human PAI-1 [1]; read-out: Inhibition Rate of PAI Activity (%), Compound Concentration 5µM) [%] | inhibition at 10 µM (recombinant human PAI-1 [1]; read-out: Inhibition Rate of PAI Activity (%), Compound Concentration 10µM) [%] | inhibition at 0.3 µM (recombinant human PAI-1 [2]) [%] | inhibition at 1 µM (recombinant human PAI-1 [2]) [%] | inhibition at 3 µM (recombinant human PAI-1 [2]) [%] | inhibition at 0.1 µM (recombinant human PAI-1 [3]) [%] | inhibition at 0.3 µM (recombinant human PAI-1 [3]) [%] | inhibition at 1 µM (recombinant human PAI-1 [3]) [%] | inhibition at 3 µM (recombinant human PAI-1 [3]) [%] | inhibition at 5 µM (recombinant human PAI-1 [1]; [4]) [%] | inhibition at 10 µM (recombinant human PAI-1 [1]; [5]) [%] | inhibition at 25 µM (recombinant human PAI-1 [1]; [6]) [%] | inhibition at 5 µM (recombinant human PAI-1 [1]; [7]) [%] | inhibition at 10 µM (recombinant human PAI-1 [1]; [7]) [%] | inhibition at 25 µM (recombinant human PAI-1 [1]; [7]) [%]
1 | CC(C)(C)c1ccc(Oc2ccc(-c3ccc(OC(F)(F)F)cc3)cc2CCC(=O)O)cc1 [Compound 13] | 0 | 14 | 69 | > 99 | 83 | 93 | 7 | 14 | 41 | 5 | 8 | 36 | 99 |  |  |  |  |  | 
2 | CC(C)(C)c1ccc(COc2cc(Oc3ccc(OC(F)(F)F)cc3)ccc2CCC(=O)O)cc1 [Compound 78] | 0 | 4 | 71 | 90 |  |  | 20 | 39 | 83 | 0 | 4 | 21 | 96 | 24 | 60 | 98 |  |  | 
3 | CC(C)(C)c1ccc(Oc2cc(-c3ccc(OC(F)(F)F)cc3)ccc2CCC(=O)O)cc1 [Compound 80] | 0 | 11 | 71 | 84 |  |  | 0 | 0 | 29 | 3 | 11 | 44 | > 99 |  |  |  | 43 | 82 | 94
4 | CC(C)(C)c1ccc(CN(C(=O)C(=O)O)c2ccc(OCc3ccccc3)c(-c3ccc(OC(F)(F)F)cc3)c2)cc1 [Compound 212] | 8 | 40 | 73 | 67 |  |  |  |  |  | 5 | 15 | 64 | 98 |  |  |  | 78 | 95 | 
5 | CCN(CC)c1ccc(N(Cc2ccc(C(C)(C)C)cc2)C(=O)C(=O)O)cc1-c1ccc(OC(F)(F)F)cc1 [Compound 213] | 8 | 26 | 90 | 78 |  |  |  |  |  | 0 | 10 | 48 | 98 |  |  |  | 93 | 84 | 
6 | CN(C)c1ccc(N(Cc2ccc(C(C)(C)C)cc2)C(=O)C(=O)O)cc1-c1ccc(OC(F)(F)F)cc1 [Compound 214] | 0 | 8 | 77 | 97 |  |  |  |  |  | 4 | 2 | 40 | 96 |  |  |  | 87 | 93 | 
7 | Cc1cc(N(C)C)c(-c2ccc(OC(F)(F)F)cc2)cc1N(Cc1ccc(C(C)(C)C)cc1)C(=O)C(=O)O [Compound 215] | 2 | 16 | 84 | 97 |  |  |  |  |  | 7 | 18 | 54 | 95 |  |  |  | 90 | 92 | 
8 | CC(C)(C)c1ccc(C(c2ccccc2)N(C(=O)C(=O)O)c2ccc(-c3ccc(OC(F)(F)F)cc3)cc2)cc1 (stereo not shown) [Compound 222] | 3 | 32 | 91 |  |  |  |  |  |  | 0 | 3 | 45 | > 99 | 74 | 91 |  |  |  | 
9 | CCCCOc1ccc(N(CCCCc2ccccc2)C(=O)C(=O)O)cc1-c1ccc(OC(F)(F)F)cc1 [Compound 227] | 0 | 14 | 77 | 95 |  |  |  |  |  | 0 | 7 | 41 | 98 |  |  |  | 63 | 90 | 
10 | CCC(CC)Oc1ccc(N(CCCc2ccccc2)C(=O)C(=O)O)cc1-c1ccc(OC(F)(F)F)cc1 [Compound 230] | 0 | 13 | 83 | 94 |  |  |  |  |  | 0 | 8 | 27 | 96 | 75 | 95 | 92 |  |  | 
11 | CCCCOc1ccc(-c2ccc(OC(F)(F)F)cc2)cc1N(CCCCc1ccccc1)C(=O)C(=O)O [Compound 231] | 3 | 18 | 89 | > 99 |  |  |  |  |  | 0 | 6 | 34 | 98 | 81 | 97 | 94 |  |  | 
12 | CCN(CC)c1ccc(N(CCCc2ccccc2)C(=O)C(=O)O)c(-c2ccc(OC(F)(F)F)cc2)c1 [Compound 238] | 0 | 8 | 46 | 98 |  |  |  |  |  | 0 | 0 | 21 | 87 | 76 | 95 | 93 |  |  | 

Reference: patent EP2272817A1, “PAI-1 INHIBITOR” (Institute of Medicinal Molecular Design, Inc., priority 2008, dated 2009)
